# Measurements reported in patent US20250325645A1, “BOVINE VIRAL DIARRHEA VIRUS IMMUNOGENIC COMPOSITIONS AND METHODS OF USE THEREOF” (KANSAS STATE UNIVERSITY RESEARCH FOUNDATION, priority 2021, published 2025).
# Test system: CD8+ T cells from BVDV-immunized steers
# Experiment: MHC I blocking ELISPOT assay
# Conditions: steers 2539 and 2593; 2.5 μg/ml peptide; mAbs H58A and PT85A at 1.0 μg/ml vs IgG2a isotype control; p<0.05
# Protocol: Co-cultures of CD8+ T cells and autologous CD14+ monocytes from one TGAC-immunized steer (2539) and one A125-immunized steer (2593), were incubated with 2.5 μg/ml of peptide in the presence of either the two anti-bovine MHC I mAbs or IgG2a isotype control. The IFN-γ+CD8+ T cell responses in the presence or absence of anti-bovine MHC I mAbs were reported as SFC per million CD8+ T cells described as above.
# The results from MHC I blocking ELISPOT assay were analyzed by Wilcoxon test in GraphPad Prism 7 (Version 7.04, GraphPad Software, Inc. La Jolla, CA). The significance of the difference in peptide-specific IFN-γ+CD8+ T cell responses in the absence or presence of anti-bovine MHC I mAbs was determined by a non-parametric test and the level of significance was set at p<0.05.
row,Sequence,IFN-γ+CD8+ T cell recall responses in the presence of anti-bovine MHC I mAbs
1,GSVWNLGKY [Peptide 56],significantly reduced
2,FGAYAASPY [Peptide 86],significantly reduced
3,SEQKRTLLM [Peptide 37],significantly reduced
4,GPVYHRAPL [Peptide 61],significantly reduced
5,YFEPRDNYF [Peptide 100],significantly reduced
6,YYDDNLNEI [Peptide 64],significantly reduced
